In this assay the target is AMPA receptor. Nature of the assay: displacement of [^3 H]-AMPA from its binding site on rat forebrain membranes. The following applies: 5 nmolar [^3 H]AMPA, 100 mmolar KSCN, 4° C., 1 hr. How it is done:
A representative compound of this invention was evaluated in a standard pharmacological test procedure to determine its ability to displace [^3 H]-α-amino-3-hydroxy-5-methylisoxazole-4-propionic acid (AMPA) from its binding site on rat forebrain membranes as described in a modified assay by D. E. Murphy, E. W. Snowhill and M. Williams (Characterization of quisqualate recognition sites in rat brain tissue using DL-[^3 H]α-amino-3-hydroxy-5-methylisoxazole-4-propionic acid (AMPA) and a filtration assay, Neurochemical Research, Vol. 12, No.9, 1987, pp. 775-782). Briefly, rats were decapitated and their forebrains (whole brain minus brain stem and cerebella) were homogenized in a volume (ml) of ice cold 0.32M sucrose equivalent to 15 times the forebrain weight (gram). The homogenate was centrifuged at 1,000 g for 10 minutes and the supernatant was recentrifuged at 20,000 g for 20 min. The pellet was resuspended in ice-cold distilled water and centrifuged at 8,000 g for 20 min. The supernatant and buffy coat were centrifuged at 48,000 g for 10 min. The pellet was then resuspended in the original volume of ice-cold 50 mmolar TRIS HCl (pH 7.4) and centrifuged at 48,000 g for 10 min. The pellet was resuspended in 50 mmolar TRIS HCl containing 0.04% Triton X-100 and the homogenate was incubated at 37° C. for 30 min. The homogenate was then centrifuged at 48,000 g for 10 min. […]

`O=c1[nH]c2cc3no[n+]([O-])c3cc2[nH]c1=O` [Example 1, 1-Oxy-5H,8H-2-oxa-1,3,5,8-tetraaza-cyclopenta[b]naphthalene-6,7-dione] had an IC50 of 7.6 µM.

As a reminder, the IC50 is the midpoint of a concentration-inhibition curve. Low values mean inhibition by little substance, high ones a need for much substance.

For the origin of these results see patent publication US5719153A, “5H,8H-2-oxa-1,3,5,8-tetraaza-cyclopenta[b]-naphthalene-6,7-diones” (American Home Products Corporation, priority 1996, dated 1998).
